Values after ≈ are worked out from the molar mass of the structure shown.
How the values were obtained:
Experiment in all cases: MIC by broth dilution method
Assay type in all cases: cell-based
[1] = system: Escherichia coli 389 (GC4560 imp); conditions: 18 h
Method: (§1) The minimum inhibitory concentration (MIC), the lowest concentration of the antibiotic which inhibits growth of the test organism, is determined by the broth dilution method using Muller-Hinton II […] (Baltimore Biological Laboratories) following the recommendations of the National Committee for Clinical Laboratory Standards [Methods for dilution antimicrobial susceptibility tests for bacteria that grow aerobically. Approved standard M7-A2. National Committee for Clinical Laboratory Standards, Villanova, Pa].
(§2) An inoculum level of 5×10^5 CFU/ml, and a range of antibiotic concentrations (256-1.0 μg/ml) is used. The MIC is determined after the microtiter plates are incubated for 18 hours at 35° C. in an ambient air incubator. The test organisms comprise a spectrum of Gram-positive bacteria comprised of Staphylococcus sp., Enterococcus sp., Gram-negative bacterium Escherichia coli, and the yeast Candida albicans. These organisms include recent clinical isolates that are resistant to piperacillin and vancomycin.

[2] = system: Staphylococcus aureus 375 (ATCC3538p); conditions: 18 hours at 35° C.
Method: as §1, §2

[3] = system: Escherichia coli 442 (GC4559); conditions: 18 hours at 35° C.
Method: as §1, §2

[4] = system: Enterococcus faecium 436 (ID3151); conditions: 18 hours at 35° C.
Method: as §1, §2

[5] = system: Enterococcus faecium 379 (NC12204, vancomycin-resistant); conditions: 18 hours at 35° C.
Method: as §1, §2

[6] = system: Staphylococcus aureus 310 (SSC8224, methicillin-resistant); conditions: 18 hours at 35° C.
Method: as §1, §2

[7] = system: Candida albicans 54 (CA300); conditions: 18 hours at 35° C.
Method: as §1, §2

[8] = system: Bacillus subtilis 327 (BGSC-1A1); conditions: 18 hours at 35° C.

C=C1OC(=O)c2c(cc3c(C4=C5C=C(O)C(=O)C(O)=C5C(CCCCCCC)OC4=O)c(O)cc(O)c3c2O)C1O (centres unmarked) [Cytosporacin]
MIC [1]: 64 µg/mL (≈ 113 µM) | MIC [2]: 32 µg/mL (≈ 56.7 µM) | MIC [3]: 256 µg/mL (≈ 453 µM) | MIC [4]: 16 µg/mL (≈ 28.3 µM) | MIC [5]: 64 µg/mL (≈ 113 µM) | MIC [6]: 32 µg/mL (≈ 56.7 µM) | MIC [7]: > 256 µg/mL | MIC [8]: 32 µg/mL (≈ 56.7 µM)

From patent US6784204B2, “Antibiotic cytosporacin” (Wyeth Holdings Corporation, Five Giralda Farms, priority 2002, dated 2004)
